Results: PMC12005739, “Disruption of the eEF1A1/ARID3A/PKC‐δ Complex by Neferine Inhibits Macrophage Glycolytic Reprogramming in Atherosclerosis” (Advanced Science, 2025)

Key:
[1] = target: T1, eEF1A1 (RAW264.7 macrophages) (Mus musculus, UniProt P10126); assay: CETSA and DARTS with Western blot; competition of probe pull-down; assay type: biochemical; conditions: RAW264.7 lysate or cells; Nef 200 µM (CETSA methods) or 10 µM (figure legend); DARTS 2.5-10 µM with pronase
T1 construct: endogenous protein in RAW264.7 cells or lysate, about 50 kDa band, identified by LC-MS/MS and Western blot
T1 sequence (P10126 2-462): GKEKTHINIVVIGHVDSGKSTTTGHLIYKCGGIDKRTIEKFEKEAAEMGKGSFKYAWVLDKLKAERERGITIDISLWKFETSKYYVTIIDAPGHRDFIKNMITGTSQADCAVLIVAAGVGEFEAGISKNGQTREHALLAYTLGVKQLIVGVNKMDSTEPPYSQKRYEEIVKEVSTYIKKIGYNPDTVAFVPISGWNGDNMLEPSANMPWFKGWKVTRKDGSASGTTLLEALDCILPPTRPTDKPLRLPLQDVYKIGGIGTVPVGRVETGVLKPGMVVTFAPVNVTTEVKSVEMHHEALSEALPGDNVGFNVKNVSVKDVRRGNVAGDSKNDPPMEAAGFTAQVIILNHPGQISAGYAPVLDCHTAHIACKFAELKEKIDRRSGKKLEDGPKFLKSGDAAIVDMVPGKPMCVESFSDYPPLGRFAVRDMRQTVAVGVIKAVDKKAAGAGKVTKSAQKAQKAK

[2] = target: T2, eEF1A1 (recombinant human eEF1A1) (Homo sapiens, UniProt P68104); assay: isothermal titration calorimetry (MicroCal PEAQ-ITC); assay type: binding
T2 sequence (P68104 1-462): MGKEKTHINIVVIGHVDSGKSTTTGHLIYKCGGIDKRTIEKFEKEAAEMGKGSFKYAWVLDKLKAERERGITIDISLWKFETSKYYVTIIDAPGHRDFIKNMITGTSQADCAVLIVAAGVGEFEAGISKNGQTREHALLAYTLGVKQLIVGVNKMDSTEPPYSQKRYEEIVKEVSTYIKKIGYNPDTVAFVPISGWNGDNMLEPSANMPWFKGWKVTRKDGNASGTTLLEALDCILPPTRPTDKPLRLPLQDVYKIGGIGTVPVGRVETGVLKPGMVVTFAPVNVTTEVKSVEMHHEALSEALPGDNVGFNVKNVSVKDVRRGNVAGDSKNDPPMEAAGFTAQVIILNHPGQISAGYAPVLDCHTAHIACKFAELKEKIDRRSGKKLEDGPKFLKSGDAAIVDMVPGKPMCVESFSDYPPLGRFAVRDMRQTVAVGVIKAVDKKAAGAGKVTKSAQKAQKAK
Excerpt: isothermal titration calorimetry (MicroCal PEAQ-ITC) on eEF1A1 (recombinant human eEF1A1) | ITC assay confirmed the affinity of Nef to eEF1A1 with the affinity constant of […]

Kd [2]: 4.83 µM
Structure (SMILES): COc1ccc(C[C@@H]2c3cc(Oc4cc(C[C@@H]5c6cc(OC)c(OC)cc6CCN5C)ccc4O)c(OC)cc3CCN2C)cc1 [neferine]
CETSA and DARTS with Western blot; competition of probe pull-down [1]: Nef administration protected the eEF1A1 protein from temperature‐dependent degradation in cell lysis
